Test results: patent US20220409617A1, “Drug Formulations and Methods of Treatment for Metabolic Disorders” (The Regents of the University of California, priority 2019, published 2022)

Key:
[1] = tested on: mouse embryonic fibroblasts (MEFs); assay: Ceramide-induced (C16:0 CER, C2-ceramide) mitochondrial fragmentation; assay type: cell-based; conditions: MEFs, 893 5 μM
Procedure: 3T3-L1 cells were maintained in DMEM with 10% FBS and 1% penicillin-streptomycin until induced to differentiate. 3T3-L1 pre-adipocytes were differentiated as described in (M. P. Valley, et al., Anal. Biochem. 505: 43-50, 2016, the disclosure of which is incorporated herein by reference) with slight modifications. Briefly, pre-adipocytes were grown to confluence. After 2 d, cells were induced with maintenance media containing 500 μM IBMX (15879, Sigma-Aldrich, St. Louis, Mo.), 1 μM dexamethasone (D4902, Sigma-Aldrich), 5 μg/mL bovine insulin (10516, Sigma-Aldrich), and 5 μM troglitazone (50-115-0786, ApexBio). Media was changed every 2-3 d for 7 d. On day 7 post-induction, media was changed to maintenance media+5 μg/mL bovine insulin. On day 9 post-induction, media was changed to maintenance media. Mature adipocytes were used 12-14 d post-induction for all experiments. LSL-KrasG12D mouse embryonic fibroblasts (MEFs) with and without Cre-mediated deletion of the STOP cassette were obtained from David Tuveson (Cold Spring Harbor Laboratory, Cold Spring Harbor N.Y., USA) in 2000. p53^flox/flox MEFs were derived in house (2015) from C57BL/6 mice using standard techniques and immortalized by transient expression of Cre recombinase and deletion of p53. MEFs were cultured and maintained in DMEM with 10% FBS and 1% penicillin-streptomycin. A549 cells were cultured in DMEM with 10% FBS, 1% penicillin-streptomycin and 1% sodium pyruvate. Stock solution of palmitic acid (ACROS Organics, cat # AC129702500) was prepared at 100 mM in ethanol. Palmitate (250 μM) was conjugated to 1% (w/v) fatty-acid free bovine serum albumin (Sigma, A8806) in DMEM at 37° C. for 20 min. For all immunofluorescence assays, 8,000 MEFs were seeded into 8-chamber slides (Cellvis, cat # C8-1.5H-N) 12-16 h before treatment. Cells were pre-treated with sphingolipid-like compound 893 (5 μM in water), myriocin (10 μM in methanol), fumonisin-B1 (30 μM in DMSO), or celastrol (500 nM in DMSO) for 3 h followed by a 3 h treatment with BSA-conjugated palmitate mixture or BSA alone. Where cells were treated with C2-ceramide (50 μM in DMSO) or C16:0 ceramide (100 μM in ethanol) for 3 h, cells were pre-treated with sphingolipid-like compound 893 for 1-3 h as indicated, mdivi-1 (50 μM in DMSO) for 1 h or 24 h, M1 (5 μM in DMSO) for 24 h, mdivi-1 and M1 together for 24 h, leflunomide (50 μM in methanol) for 1 h or 24 h, or with P110 (1 μM in water) for 1 h or 12 h. LSL or KRAS^G12D MEFs were treated with sphingolipid-like compound 893 (5 μM) for 6 h prior to fixation.
MEFs were washed twice with PBS and fixed with 4% paraformaldehyde for 10 min at RT. Cells were permeabilized with 0.3% Triton X-100 in blocking buffer containing 10% fetal bovine serum for 20 min at 37° C. followed by overnight incubation with mouse anti-citrate synthase (sc-390693, Santa Cruz Biotechnology; dilution, 1:200) or rabbit-anti-DRP1 at 1:100 (#8570, Cell Signaling Technology) at 4° C. Cells were then washed twice with PBS and incubated with AlexaFluor 488 goat anti-mouse (A28175, Invitrogen) or AlexaFluor 594 donkey anti-rabbit (A32754, Invitrogen) secondary antibodies at RT followed by 5 min incubation with 1 μg/ml DAPI and 2 washes in PBS. For NADH autofluorescence studies, mice were gavaged with vehicle or 120 mg/kg sphingolipid-like compound 893 at ZT8.5 (4-10.5 h before sacrifice between ZT12.5 and ZT18). Post sacrifice, livers were excised, washed 3× with PBS, placed in DMEM supplemented with 10% FBS and 1% penicillin-streptomycin, and immediately imaged. NADH/NADPH autofluorescence was detected with 740 nm excitation and 450±50 nm detectors using a Mai Tai two-photon laser. Fluorescence microscopy was performed on a Zeiss LSM 780 confocal using a 63× oil objective with a […] numerical aperture (NA) or using a Nikon TE2000-S inverted epifluorescence microscope with a 100× oil objective (1.3 NA) and a Photometrics CoolSNAP ES2 monochrome CCD camera. […]

[2] = Voluntary cage running in HFD-fed mice; assay type: in vivo, mouse
From the text: Exercise can mitigate the negative effects of hyper-nutrition. When provided with a running wheel, mice will voluntarily run 2-10 km per night, slowing the body weight and fat gain that normally accompany HFD feeding and improving metabolic status. To benchmark the effects of sphingolipid-like compound 893 against voluntary exercise and to determine whether the beneficial effects of these interventions are additive, 16 male, C57BL/6J mice that had been fed a HFD for 7 weeks were individually housed, provided with running wheels, and randomly assigned to receive vehicle or 120 mg/kg sphingolipid-like compound 893 on the Monday/Wednesday/Friday schedule. Rodent running activity declines under stress, and monitoring the duration and distance of voluntary wheel running also provides a holistic measure of overall mouse health. […] As expected, voluntary exercise led to weight loss in vehicle-treated mice maintained on a HFD that leveled off after the first week of intervention (FIGS. 15, 21, & 22). […] Wheel running reduced fat mass while maintaining lean mass in all groups (FIGS. 15, 22 & 23).
To monitor voluntary exercise, sixteen mice were singly housed in home cages equipped with running wheels; initially n=8. A magnet was affixed to each 240 mm wheel and a bicycle odometer (Sigma BC509, Sigma Sports, Chicago) used to count the number of wheel revolutions and time spent on running on the wheels. Distance run was calculated by the equation (#revolutions×running wheel circumference=distance). The wheels were cleaned and randomly re-assigned weekly to each cage to control for differences in wheel performance. Two animals in the sphingolipid-like compound 893-treated group were euthanized due to gavage errors and were excluded from the analysis resulting in n=6.

SMILES: CCCCCCCCc1ccc([C@H]2CCN[C@@H]2CO)cc1.Cl [compound 893]
- Pre-treatment time after which the compound was effective against C16:0 ceramide-induced fragmentation [1]: 1 h
- Protection from ceramide-induced mitochondrial fragmentation ([1]; C16:0 CER 100 μM or C2-ceramide 50 μM 3 h, mdivi-1 50 μM, M1 5 μM, leflunomide 50 μM, P110 1 μM): blocked ceramide-induced mitochondrial fragmentation
- Average time spent on running wheels each day ([2]; HFD-fed mice with running wheels, 120 mg/kg): equivalent in vehicle- and sphingolipid-like compound 893-treated groups
- Average daily distance run ([2]; HFD-fed mice with running wheels, 120 mg/kg Mon/Wed/Fri): 2.8±1.2 km
- Weight loss, running wheel plus treatment ([2]; HFD-fed mice, running wheel and 120 mg/kg): even greater weight loss than observed with either treatment alone
